Experiments:
Assay type in all cases: biochemical
[1] = molecular target: T1, PHD2 (catalytic domain, residues 181–426) (Homo sapiens, UniProt Q9GZT9); experiment: Steady-state kinetics of PHD2-catalyzed HIF-α CODD/NODD hydroxylation (MALDI-TOF-MS); details: PHD2, 4 μM PHD2, 50 μM Fe(II), 4 mM L-ascorbate, 50 mM HEPES pH 7.5, 37 °C
T1 construct: The catalytic domain of PHD2 (residues 181–426) was purified as described; made in house
Procedure: (§1) Enzymatic assays were conducted as described ([46], [47]). Unless otherwise stated, the assay mixture typically contained 5 μM FIH, 500 μM substrate, 500 μM 2OG, 1 mM L-ascorbate, and 50 μM Fe(NH4)2(SO4)2 or 4 μM PHD2, 100 μM substrate, 300 μM 2OG, 4 mM L-ascorbate, and 50 μM Fe(NH4)2(SO4)2. For HIF-1α CODD19-mer, the background levels of methionine oxidation resulting from assay conditions were subtracted based on non-enzymatic controls ([48]).
The O2 dependence of FIH-catalyzed reactions was determined by conducting enzymatic assays in an “In vivo 500 Hypoxia Workstation” (Ruskinn) using buffers pre-equilibrated under different pO2 values for 24 h. The O2 dependence of PHD2-catalyzed reactions was determined by conducting enzymatic assays in sealed glass vials with variable N2/O2 contents ([42]). Reactions were stopped by spotting samples onto a matrix-assisted laser desorption/ionization-time of flight mass spectrometry (MALDI-TOF-MS) target plate and immediately mixing with α-cyano-4-hydroxycinnamic acid matrix. Hydroxylation levels were assessed by MALDI-TOF-MS as described ([46]).

PHD2 [2] = molecular target: T2, PHD2 (Homo sapiens, UniProt Q9GZT9); experiment: Rapid quench-flow, PHD2 pre-steady-state product and succinate formation; details: same mixture as stopped-flow, O2-saturated buffer 1:1, 5 °C, quenched with 1% CF3CO2H
T2 construct: The catalytic domain of PHD2 (residues 181–426) was purified as described; made in house
Procedure: Rapid quench-flow experiments were performed using the same conditions and preparation of the assay mixture as used in stopped-flow experiments. Rapid quench-flow equipment (TgK Scientific Ltd.) in an anaerobic glove box was used for the experiments. Samples were quenched with 1% CF3CO2H and analyzed using MALDI-TOF-MS (peptide hydroxylation) as described above or liquid chromatography-mass spectrometry (LC-MS, for succinate production). For LC-MS, chromatographic separation was performed at 50 °C using a Waters ACQUITY BEH Amide 1.7-μm, 2.1 × 100-mm column on a Waters ACQUITY^TM ultraperformance liquid chromatography system (Waters Corp., Milford, MA). The following eluents were used: mobile phase A: 10% H2O, 90% acetonitrile (v/v), 10 mM ammonium formate; mobile phase B: 50% H2O, 50% acetonitrile (v/v), 10 mM ammonium formate. The elution gradient was 0–7.0 min linear from 10 to 30% B, and 7.0–9.0 min at 10% B for re-equilibration of the column. A constant flow rate of 0.4 ml/min was used. Analytes were detected in negative ionization mode using single reaction monitoring on a Quattro triple quadrupole mass spectrometer (Waters) with a cone voltage of 15 V and a capillary voltage of 3.0 kV. The desolvation temperature was set to 250 °C, and the source temperature was set to 120 °C.
To investigate correlation of the spectroscopic observations with rates of product accumulation, equivalent reactions were analyzed by rapid quench-flow methodology. Anerobically prepared PHD2·Fe(II)·2OG·peptide substrate complexes were mixed with O2-saturated buffer in a 1:1 ratio; reactions were quenched at defined time points with 1% aqueous CF3CO2H. The level of peptide hydroxylation was assessed by MALDI-TOF-MS ([42]), and succinate accumulation was analyzed by LC-MS. To obtain rate constants for product accumulation, the results were fitted with a single exponential function (Fig. 5E and Table 3).

PHD2 [3] = molecular target: T2, PHD2; experiment: Time course of PHD2-catalyzed peptide hydroxylation; details: 4 μM PHD2, 100 μM peptide, 50 μM Fe(II), 300 μM 2OG, 1 mM L-ascorbate, 50 mM HEPES pH 7.5, 37 °C, atmospheric O2; MALDI-TOF-MS; triplicate assays
Procedure: as §1
FIGURE 3. PHD2- and FIH-catalyzed hydroxylation of HIF-1/2α peptide substrates. A, time course of HIF-1/2α CODD19-mer peptide hydroxylation; B, time course of HIF-1/2α NODD19-mer peptide hydroxylation. Conditions were as follows: 4 μM PHD2, 100 μM peptide, 50 μM Fe(II), 300 μM 2OG, 1 mM L-ascorbate in HEPES 50 mM (pH 7.5) were incubated at 37 °C at atmospheric O2. C, time course of HIF-1α CAD 19- and 35-mer peptide hydroxylation. D, time course of HIF-2α CAD 19- and 35-mer peptide hydroxylation. Conditions were as follows: 5 μM FIH, 500 μM peptide, 50 μM Fe(II), 500 μM 2OG, 1 mM L-ascorbate in HEPES 50 mM (pH 7.5) were incubated at 37 °C at atmospheric O2. The different hydroxylation levels were analyzed by MALDI-TOF-MS. Error bars, S.D. of triplicate assays.

PHD2 [4] = molecular target: T2, PHD2; experiment: Stopped-flow UV-visible spectroscopy, PHD2·Fe(II)·2OG·substrate + O2; details: anaerobic 0.8 mM PHD2, 1 mM peptide, 5 mM 2OG, 50 mM HEPES pH 7.5, mixed 1:1 with O2-saturated buffer at 5 °C, double exponential fit
Procedure: Stopped-flow UV-visible spectroscopy experiments were performed as described previously ([32], [42]). […] The reaction was observed over 1000 s using a photodiode array detector, and kinetic traces were analyzed using Origin version 8.51 software. Data were fitted with a double exponential function (y = A1 × exp(−kriset) + A2 × exp(−kfallt) + y0). The A1, A2, and y0 parameters were restricted with upper limits to match the observed amplitude/offset changes.
Previously reported pre-steady-state kinetic studies on PHD2 focused on its reaction with CODD HIF-1α 19-mer peptide ([38], [42]); there is no reported information on the rates of PHD2 reaction with O2 in the presence of NODD HIF-1α or HIF-2α substrates. To ascertain whether a slow reaction with O2 under pre-steady-state conditions is common to PHD2-catalyzed hydroxylation of both CODD and NODD, we investigated the reaction of PHD2 with NODD substrates in comparison with CODD for both HIF-1α and HIF-2α. Pre-steady-state reactions of PHD2 were initiated by rapid mixing of anaerobic PHD2·Fe(II)·2OG·HIF-α complexes with O2-saturated buffer at 5 °C. Reactions were initially observed using a photodiode array detector, and difference spectra (in comparison with the reaction with O2-free buffer) were subsequently analyzed.
FIGURE 5. Pre-steady-state kinetics of PHD2-catalyzed HIF-1/2α hydroxylation. […] B, stopped-flow kinetic traces at 520 nm showing absorbance changes in control experiments: Fe(II) only, mix of Fe(II) and 2OG, reaction of PHD2·Fe(II)·2OG complex with O2 in the absence of CODD; reaction of PHD2·Fe(II)·N-oxalylglycine (NOG)·CODD complex with O2. N-Oxalylglycine is an inhibitor of 2OG oxygenases. […] The kinetic traces represent the average of triplicate assays. E, HIF-1/2α peptide hydroxylation, as determined by MALDI-TOF-MS. Reactions were quenched with 1% CF3CO2H at defined time points.

T2 sequence (Q9GZT9 181-426): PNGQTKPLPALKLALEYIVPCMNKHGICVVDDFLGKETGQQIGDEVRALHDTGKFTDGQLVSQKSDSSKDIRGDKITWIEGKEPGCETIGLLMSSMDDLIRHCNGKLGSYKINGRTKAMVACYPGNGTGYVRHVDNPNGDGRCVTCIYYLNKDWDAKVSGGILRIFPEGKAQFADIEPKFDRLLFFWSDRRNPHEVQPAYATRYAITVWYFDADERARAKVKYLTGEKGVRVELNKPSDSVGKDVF
T1 sequence (Q9GZT9 181-426): as above

DLDLEMLAPYIPMDDDFQL [HIF-1α CODD, 19-mer fragment (556–574) of the HIF-1α C-terminal oxygen-dependent degradation domain, PHD2 substrate]
kcat^app [1]: 0.060 ± 0.006 s⁻¹
Rapid quench-flow kproduct (PHD2 [2]; peptide hydroxylation by MALDI-TOF-MS, single exponential fit): 0.0155 ± 0.0012 s⁻¹
Rapid quench-flow ksuccinate (PHD2 [2]; succinate by LC-MS): 0.0130 ± 0.0020 s⁻¹
substrate hydroxylation after 15 min (PHD2 [3]): 70%
Stopped-flow, 520 nm (PHD2) krise phase (PHD2 [4]): 0.015 ± 0.005 s⁻¹
Stopped-flow, 520 nm (PHD2) kfall phase (PHD2 [4]; traces average of triplicate): 0.040 ± 0.007 s⁻¹

— paper PMC4528135, “Kinetic Investigations of the Role of Factor Inhibiting Hypoxia-inducible Factor (FIH) as an Oxygen Sensor” (The Journal of Biological Chemistry, 2015)
